Paper PMC6499206, “Quantification of Volatile Metabolites Derived From Garlic (Allium sativum) in Human Urine” (Frontiers in Nutrition, 2019)

Assay: Quantification of garlic-derived metabolites in human urine after ingestion of 3 g raw garlic (SIDA, SAFE, HRGC-MS / HRGC-GC-MS)
Assay type: in vivo
Set-up: metabolite in urine related to creatinine: unit not given here
Details: for metabolite concentration in urine, creatinine-normalized / metabolite concentration in urine / highest detected concentration of the sample series: 3 g raw garlic; for highest detected concentration of the sample series: same bulb
Source text: Human urine samples were obtained from 18 volunteers (age 22–38 years, mean 27 years; 11 females, 7 males); thereby, one volunteer conducted the whole experimental series twice. At the time of examination, volunteers reported no known illness that might have potentially influenced the metabolism or the excretion of urine. The test persons were instructed to avoid foods that were rich in sulfur-containing substances at the testing day as well as 2 days preceding the testing day, namely garlic, onion, wild garlic, chives, cabbage, and leek, and were only allowed to consume the garlic sample provided in the course of the experiments. Additionally, subjects were asked to keep records of the food (including food supplements) and beverages they consumed during these 3 testing days. Generally, the overall panelists' requirements were in accordance with our previous studies ([5], [16]).
On the sampling day, the outer garlic cloves of a whole garlic bulb were peeled and cut into ~3 mm cubes by using a garlic cutter (Genius GmbH, Limburg/Lahn, Germany). Subsequently these cubes were thoroughly mixed and aliquoted into 3 g portions. Three to four test persons conducted the experiment at the same day. Each test person was asked to ingest a garlic portion of 3 g. In total, eight consecutive urine samples were provided by each test person, comprising one whole urine set. The samples were collected in sterile brown glass bottles, with sampling times as follows: one sample was provided directly prior to garlic consumption. The series of the second to eighth sample was then obtained at about 0.5, 1, 2, 4, 6, 8, and 24 h after garlic consumption, respectively. Between the first urine sample (prior to garlic consumption) and the seventh urine sample (8 h after garlic consumption) test persons only spent urine at the specific time points mentioned before. Another sample was provided at the next morning (24 h after garlic consumption). Between the samples provided 8 and 24 h after garlic consumption no urine was collected. All samples were immediately placed into a −80°C freezer and were kept frozen until further analysis.
The samples of each set were termed according to their sampling time. The following list provides the time intervals that are related to the respective sample name: • - pre: before garlic consumption • - 0.5 h post: 0.4–0.8 h after garlic consumption • - 1 h post: 0.9–1.3 h after garlic consumption • - 2 h post: 1.8 h−2.2 h after garlic consumption • - 4 h post: 3.8–4.4 h after garlic consumption • - 6 h post: 5.8–6.4 h after garlic consumption • - 8 h post: 7.8–8.4 h after garlic consumption • - 24 h post: 23.8–25.6 h after garlic consumption
A creatinine kit (Labor+Technik Eberhard Lehmann GmbH, Berlin, Germany) was used to determine the creatinine content in each urine sample. The determination principle of this kit is based on the reaction of creatinine with picric acid under basic conditions (Jaffé reaction). The formed complex was detected photometrically at a wavelength of 492 nm.
For quantification purposes, the deuterated standards ^2H3-AMS, ^2H3-AMSO, and ^2H3-AMSO2 were added to the sample and stirred for 10 min. Subsequently, DCM was added in a ratio of 1:2 (DCM/human urine; v/v) and this solution was stirred for further 30 min at room temperature. To isolate the volatile fraction from the urine samples we then applied SAFE-distillation ([17]), thereby distilling the respective samples at 50°C. After completion of the distillation process, 10 mL of DCM were applied in each case to rinse the SAFE apparatus and to ensure complete transition of the volatile compounds. This process was repeated with another 10 mL of DCM. After thawing, the obtained aqueous distillate phase was extracted three times with 25 mL DCM. The organic phases were combined, dried over anhydrous Na2SO4 and concentrated to a total volume of 100 μL by means of Vigreux distillation and subsequent micro-distillation at 50°C. […]

SMILES: C=CC[S+](C)[O-] (stereo not shown) [AMSO, allyl methyl sulfoxide]
- metabolite concentration in urine, creatinine-normalized (U XII, 1 h post (1.03 h)): 83.2 µg/mmol creatinine
- metabolite concentration in urine (U XII, 2 h post (1.85 h)): 72.2 µg/kg
- metabolite concentration in urine, creatinine-normalized (U XII, 2 h post (1.85 h)): 108.2 µg/mmol creatinine
- metabolite concentration in urine (U XII, 4 h post (3.80 h)): 84.6 µg/kg
- metabolite concentration in urine, creatinine-normalized (U XII, 4 h post (3.80 h)): 31.9 µg/mmol creatinine
- metabolite concentration in urine (U XII, 6 h post (5.82 h)): 61.6 µg/kg
- metabolite concentration in urine, creatinine-normalized (U XII, 6 h post (5.82 h)): 10.8 µg/mmol creatinine
- metabolite concentration in urine (U XII, 8 h post (7.82 h)): 28.7 µg/kg
- metabolite concentration in urine, creatinine-normalized (U XII, 8 h post (7.82 h)): 10.1 µg/mmol creatinine
- metabolite concentration in urine (U XII, 24 h post (23.92 h)): 11.3 µg/kg
- metabolite concentration in urine, creatinine-normalized (U XII, 24 h post (23.92 h)): 0.8 µg/mmol creatinine
- metabolite concentration in urine (U XII, pre (-0.08 h)): 3.9 µg/kg
- metabolite concentration in urine, creatinine-normalized (U XII, pre (-0.08 h)): 0.2 µg/mmol creatinine
- metabolite concentration in urine (U XIII, 0.5 h post (0.42 h)): 38.0 µg/kg
- metabolite concentration in urine, creatinine-normalized (U XIII, 0.5 h post (0.42 h)): 23.8 µg/mmol creatinine
- metabolite concentration in urine (U XIII, 1 h post (0.92 h)): 216.6 µg/kg
- metabolite concentration in urine, creatinine-normalized (U XIII, 1 h post (0.92 h)): 87.7 µg/mmol creatinine
- metabolite concentration in urine (U XIII, 2 h post (1.92 h)): 197.5 µg/kg
- metabolite concentration in urine, creatinine-normalized (U XIII, 2 h post (1.92 h)): 57.1 µg/mmol creatinine
- metabolite concentration in urine (U XIII, 4 h post (3.92 h)): 105.6 µg/kg
- metabolite concentration in urine, creatinine-normalized (U XIII, 4 h post (3.92 h)): 22.5 µg/mmol creatinine
- metabolite concentration in urine (U XIII, 6 h post (5.92 h)): 42.9 µg/kg
- metabolite concentration in urine, creatinine-normalized (U XIII, 6 h post (5.92 h)): 3.7 µg/mmol creatinine
- metabolite concentration in urine (U XIII, 8 h post (7.92 h)): 2.6 µg/kg
- metabolite concentration in urine, creatinine-normalized (U XIII, 8 h post (7.92 h)): 0.3 µg/mmol creatinine
- metabolite concentration in urine (U XIII, 24 h post (23.92 h)): 2.6 µg/kg
- metabolite concentration in urine, creatinine-normalized (U XIII, 24 h post (23.92 h)): 0.3 µg/mmol creatinine
- metabolite concentration in urine (U XIII, pre (-0.08 h)): < LOD^2
- metabolite concentration in urine, creatinine-normalized (U XIII, pre (-0.08 h)): < LOD^2
- variation factor of the concentration maxima between test persons (Urine XIII-XVI, highest vs lowest maximum): up to 3.0
- highest detected concentration of the sample series (Urine XIII): 87.7 μg/mmol creatinine
- highest detected concentration of the sample series (Urine XIV (AMS: printed Urine UIV)): 84.7 μg/mmol creatinine
- highest detected concentration of the sample series (Urine XV): 150.4 μg/mmol creatinine
- highest detected concentration of the sample series (Urine XVI): 50.1 μg/mmol creatinine
- metabolite in urine related to creatinine (urine set U XIX, 0.5 h post (0.50 h), garlic 3.1133 g): 15.1
- metabolite in urine related to creatinine (urine set U XIX, 1 h post (1.00 h), garlic 3.1133 g): 68.8
- metabolite in urine related to creatinine (urine set U XIX, 2 h post (2.00 h), garlic 3.1133 g): 70.6
- metabolite in urine related to creatinine (urine set U XIX, 4 h post (4.00 h), garlic 3.1133 g): 27.0
- metabolite in urine related to creatinine (urine set U XIX, 6 h post (6.20 h), garlic 3.1133 g): 9.8
- metabolite in urine related to creatinine (urine set U XIX, 8 h post (7.93 h), garlic 3.1133 g): 5.9
- metabolite in urine related to creatinine (urine set U XIX, 24 h post (23.98 h), garlic 3.1133 g): 0.2
- metabolite in urine related to creatinine (urine set U XIX, pre (-0.07 h), garlic 3.1133 g): < LOD^2
- metabolite in urine related to creatinine (urine set U XVII, 0.5 h post (0.58 h), garlic 3.1559 g): 0.8
- metabolite in urine related to creatinine (urine set U XVII, 1 h post (1.00 h), garlic 3.1559 g): 10.7
- metabolite in urine related to creatinine (urine set U XVII, 2 h post (2.17 h), garlic 3.1559 g): 27.6
- metabolite in urine related to creatinine (urine set U XVII, 4 h post (4.00 h), garlic 3.1559 g): 15.5
- metabolite in urine related to creatinine (urine set U XVII, 6 h post (6.08 h), garlic 3.1559 g): 1.2
- metabolite in urine related to creatinine (urine set U XVII, 8 h post (8.00 h), garlic 3.1559 g): 1.8
- metabolite in urine related to creatinine (urine set U XVII, 24 h post (23.92 h), garlic 3.1559 g): 0.2
- metabolite in urine related to creatinine (urine set U XVII, pre (-0.08 h), garlic 3.1559 g): 0.3
- metabolite in urine related to creatinine (urine set U XVIII, 0.5 h post (0.63 h), garlic 3.1981 g): 44.1
- metabolite in urine related to creatinine (urine set U XVIII, 1 h post (1.05 h), garlic 3.1981 g): 84.8
- metabolite in urine related to creatinine (urine set U XVIII, 2 h post (2.00 h), garlic 3.1981 g): 94.9
- metabolite in urine related to creatinine (urine set U XVIII, 4 h post (3.97 h), garlic 3.1981 g): 50.9
- metabolite in urine related to creatinine (urine set U XVIII, 6 h post (5.97 h), garlic 3.1981 g): 16.6
- metabolite in urine related to creatinine (urine set U XVIII, 8 h post (8.30 h), garlic 3.1981 g): 17.1
- metabolite in urine related to creatinine (urine set U XVIII, 24 h post (24.13 h), garlic 3.1981 g): 0.5
- metabolite in urine related to creatinine (urine set U XVIII, pre (-0.08 h), garlic 3.1981 g): < LOD^2
